Assays:
Type in all cases: cell-based
[1] = target: T1, human TGR5 receptor (Homo sapiens, UniProt Q8TDU6); experiment: Human TGR5 cAMP production assay (hTGR5-CHO cells, DiscoveRx cAMP XS+ kit); details: luminescent cAMP assay, read-out: Human TGR5 Lum. cAMP Activity (EC50)
T1 construct: host or cells: CHO-K1 (hTGR5-CHO)
T1 sequence (Q8TDU6 1-330): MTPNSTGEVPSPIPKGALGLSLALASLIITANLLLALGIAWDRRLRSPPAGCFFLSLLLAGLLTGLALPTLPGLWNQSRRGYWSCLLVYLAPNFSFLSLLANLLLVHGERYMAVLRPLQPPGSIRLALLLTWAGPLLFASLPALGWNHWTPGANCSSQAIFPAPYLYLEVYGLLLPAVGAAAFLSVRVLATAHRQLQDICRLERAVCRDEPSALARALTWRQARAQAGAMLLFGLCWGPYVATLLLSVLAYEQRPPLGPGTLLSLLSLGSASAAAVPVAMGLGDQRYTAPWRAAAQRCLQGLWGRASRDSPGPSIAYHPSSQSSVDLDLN
Method in brief: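 EC50 values come from luminescent enzyme-complementation cAMP detection, read after overnight incubation. Beforehand, hTGR5-expressing CHO-K1 cells with IBMX and anti-cAMP antibody were exposed 1 h at room temperature to serially diluted (half-log) compounds.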

[2] = target: T2, mouse TGR5 receptor (Mus musculus, UniProt Q80SS6); experiment: Mouse TGR5 luminescent cAMP production assay (HEK293-EBNA cells, DiscoveRx cAMP XS+ kit); details: HEK293-EBNA cells overexpressing mouse TGR5, luminescent cAMP assay; read-out: Mouse TGR5 Lum. cAMP Activity (EC50)
T2 construct: host or cells: HEK293-EBNA (293 c18, ATCC CRL10852)
T2 sequence (Q80SS6 1-329): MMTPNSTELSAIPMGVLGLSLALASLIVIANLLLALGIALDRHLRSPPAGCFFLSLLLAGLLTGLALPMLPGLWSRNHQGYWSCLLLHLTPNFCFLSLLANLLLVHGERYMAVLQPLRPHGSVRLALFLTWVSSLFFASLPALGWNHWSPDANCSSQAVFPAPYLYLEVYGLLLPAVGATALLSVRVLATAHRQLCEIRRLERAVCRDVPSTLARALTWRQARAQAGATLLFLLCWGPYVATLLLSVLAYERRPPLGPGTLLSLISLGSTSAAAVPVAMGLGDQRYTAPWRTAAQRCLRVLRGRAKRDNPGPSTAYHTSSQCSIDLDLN
Procedure: Mouse TGR5 cAMP Production Assay
Compounds of the present invention were evaluated for their ability to induce cAMP production in HEK-EBNA cells overexpressing the mouse TGR5 receptor. Human embryonic kidney cells (HEK293-EBNA) stably expressing mouse TGR5 receptor were established using the following procedure. Specifically, a commercially obtained gene encoding mouse TGR5 (accession number BC116914) from Thermo Scientific (Waltham, Mass.) was cloned into an episomal expression vector. The resulting expression plasmid was then transfected into 293 c18 (ATCC® CRL10852™) cells, which express the Epstein-Barr virus nuclear antigen EBNA1 and can support the replication of episomal vectors. Selection for the plasmid was maintained with Hygromycin B. Cells were cultured and maintained in DMEM (Sigma; cat #6429) supplemented with 10% Fetal Bovine Serum, 1% penicillin/streptomycin, 2 mM L-alanine L-glutamine (GlutaMax), and 250 μg/mL Hygromycin.
We developed two cAMP production assays.
(i) Luminescent cAMP Production Assay
In this first cAMP production assay, the cAMP production was measured using DiscoveRx's cAMP XS+ kit following the manufacturer's recommended protocol. Briefly, HEK293-EBNA cells stably overexpressing mouse TGR5 were harvested using non-enzymatic cell dissociation buffer (Sigma-Aldrich, St. Louis, Mo.), spun down, then resuspended in serum-free DMEM with 500 μM IBMX at a density of 1.25×10^6 cells/mL. 500 μL of cAMP antibody solution was added to 500 μL of cell suspension and incubated at room temperature for 20 min.
Test compounds were serially diluted (half-log dilutions) in DMSO and then further diluted 1:50 in PBS, 10 mM HEPES buffer. 2 μL of serially diluted compound was added to a 384-well low volume plate (Greiner cat #784075) and centrifuged briefly. 2 μl of the cell/cAMP antibody mixture was then added to each compound-containing well and allowed to incubate at room temperature for one (1) hour. Following incubation, the XS+ kits' ED/Lysis/CL Substrate Working Solution was prepared following the manufacturer's recommended protocol and 4 μL was added to each well of the plate. The plate was then incubated for one (1) hour at room temperature. Following incubation, 4 μL of (Enzyme Acceptor) EA reagent was added to the plate and allowed to incubate overnight at room temperature. Luminescent signal was then detected using the Viewlux instrument (PerkinElmer, Waltham, Mass.).
In Table 52, EC50 values for both human and mouse cells were determined according to the TGR5 cAMP assays described above. […]

[3] = target: T2, mouse TGR5 receptor; experiment: Mouse TGR5 HTRF cAMP production assay (HEK293-EBNA cells, Cisbio cAMP HiRange kit); details: HEK293-EBNA cells overexpressing mouse TGR5, HTRF cAMP assay
Method in brief: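 cAMP accumulation was read by competitive HTRF after 1 h room-temperature compound treatment, with a further 1 h conjugate incubation. Cells were mouse TGR5-overexpressing HEK293-EBNA in serum-free DMEM plus 500 μM IBMX. Compounds ran as 12-point half-log series in duplicate, and EC50 values were reported.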

[4] = test system: Mouse STC-1 cells; experiment: STC-1 GLP-1 assay (GLP-1 secretion); details: Mouse STC-1 cells, GLP-1 secretion, 2 h; read-out: Mouse STC-1 HTRF GLP-1 Activity (EC50)
Procedure: Compounds of the present invention were evaluated for their ability to induce GLP-1 production in mouse intestinal neuroendocrine tumor cells.
Mouse STC-1 cells were cultured and maintained in high glucose DMEM (Sigma #5796) supplemented with 15% horse serum, 5% Fetal Bovine Serum (FBS), 1%° penicillin/streptomycin, and 2 mM L-alanine L-glutamine (GlutaMax). Two days prior to analysis of GLP-1 secretion cells were harvested using Accutase (Sigma), spun down then resuspended in high glucose DMEM media containing 2 mM L-alanine L-glutamine (GlutaMax), 10% charcoal-dextran stripped FBS, and 50 μg/mL Gentamicin, at a density of 100,000° cells/mL. 100 μL of cell suspension was added to each well of a 96-well Poly-D-Lysine coated culture plate (Sigma; cat #2382493) and was incubated at 37° C. with 5% CO2.
Compounds were initially diluted in 100% DMSO (12-point serial dilution by half logs) in a 96-well plate and then were further diluted 1:500 in Hanks' Balanced Salt Solution (HBSS) containing protease inhibitor cocktail, DPP-IV inhibitor, and 0.1% fatty acid free bovine serum albumin. On the day of the experiment cells were washed once with HBSS. After wash, 100 μL of test compound was added to each well. The plate was incubated at 37° C. with 5% CO2 for 2° h. Supernatants were collected and GLP-1 secretion was measured using the Cisbio™ Active GLP-1 HTRF Assay Kit (CisBio). Briefly, Anti-GLP-1-d2 conjugate and Anti-GLP-1 Terbium Cryptate conjugate stock solutions were prepared as per kit instructions. The two solutions were pre-mixed and 10 μL were transferred to a 384-well low volume plate (Greiner; cat #784075). 10 μL of collected supernatants were added to wells already containing the conjugate solution. The plate was covered and incubated at room temperature overnight. The plate was read on an Envision™ plate reader (PerkinElmer).
In Table 53, EC50 values were obtained from the STC-1 GLP-1 production assay for compounds of the present invention are summarized.

Structure (SMILES)	EC50 [1] [nM]	EC50 [2] [nM]	EC50 [3] [nM]	EC50 [4] [nM]
O=C(NCCc1ccc(C(F)(F)F)cc1)[C@@H]1CCCN1c1cc(NCc2ccncc2)nc(C(F)(F)F)n1 [Compound 3]	1000 to 30000	100 to 999	–	–
O=C(NCCc1ccc(C(F)(F)F)cc1)[C@@H]1CCCN1c1cc(NCc2cccnc2)nc(C(F)(F)F)n1 [Compound 4]	1000 to 30000	100 to 999	–	–
O=C(NCCc1ccc(C(F)(F)F)cc1)[C@@H]1CCCN1c1cc(N2CCC(CCO)CC2)nc(C(F)(F)F)n1 [Compound 7]	< 100	< 100	–	–
COCC1CCN(c2cc(N3CCC[C@H]3C(=O)NCCc3ccc(C(F)(F)F)cc3)nc(C(F)(F)F)n2)CC1 [Compound 8]	< 100	100 to 999	–	–
N#Cc1ccc(CCNC(=O)[C@@H]2CCCN2c2cc(NCc3ccncc3)nc(C(F)(F)F)n2)cc1 [Compound 13]	100 to 999	< 100	–	–
N#Cc1ccc(CCNC(=O)[C@@H]2CCCN2c2cc(Nc3ccncc3)nc(C(F)(F)F)n2)cc1 [Compound 14]	1000 to 30000	1000 to 30000	–	–
CC(C)(C)OC(=O)N1CCC(Nc2cc(N3CCC[C@H]3C(=O)NCCc3ccc(C#N)cc3)nc(C(F)(F)F)n2)CC1 [Compound 15]	1000 to 30000	< 100	–	–
CC(C)(C)OC(=O)NC1CCN(c2cc(N3CCC[C@H]3C(=O)NCCc3ccc(C#N)cc3)nc(C(F)(F)F)n2)CC1 [Compound 16]	100 to 999	< 100	–	–
CC(C)(C)OC(=O)NCC1CCN(c2cc(N3CCC[C@H]3C(=O)NCCc3ccc(C#N)cc3)nc(C(F)(F)F)n2)CC1 [Compound 17]	100 to 999	100 to 999	–	–
CC(C)(C)OC(=O)NCCC1CCN(c2cc(N3CCC[C@H]3C(=O)NCCc3ccc(C#N)cc3)nc(C(F)(F)F)n2)CC1 [Compound 18]	100 to 999	100 to 999	–	–
CN(CC1CCN(c2cc(N3CCC[C@H]3C(=O)NCCc3ccc(C#N)cc3)nc(C(F)(F)F)n2)CC1)C(=O)OC(C)(C)C [Compound 20]	1000 to 30000	1000 to 30000	–	–
CN1CCC(Oc2cc(N3CCC[C@H]3C(=O)NCCc3ccc(C#N)cc3)nc(C(F)(F)F)n2)CC1 [Compound 39, (S)—N-(4-cyanophenethyl)-1-(6-((1-methylpiperidin-4-yl)oxy)-2-(trifluoromethyl)pyrimidin-4-yl)pyrrolidine-2-carboxamide]	100 to 999	< 100	–	–
COCCOc1cc(N2CCC[C@H]2C(=O)NCCc2ccc(C(F)(F)F)cc2)nc(C(F)(F)F)n1 [Compound 42, (S)-1-(6-(2-methoxyethoxy)-2-(trifluoromethyl)pyrimidin-4-yl)-N-(4-(trifluoromethyl)phenethyl)pyrrolidine-2-carboxamide]	100 to 999	100 to 999	–	–
N#Cc1ccc(CCNC(=O)[C@@H]2CCCN2c2cc(Oc3ccccc3)nc(C(F)(F)F)n2)cc1 [Compound 43, (S)-N-(4-cyanophenethyl)-1-(6-phenoxy-2-(trifluoromethyl)pyrimidin-4-yl)pyrrolidine-2-carboxamide]	100 to 999	100 to 999	–	–
COc1ccc(Oc2cc(N3CCC[C@H]3C(=O)NCCc3ccc(C#N)cc3)nc(C(F)(F)F)n2)cc1 [Compound 44, (S)-N-(4-cyanophenethyl)-1-(6-(4-methoxyphenoxy)-2-(trifluoromethyl)pyrimidin-4-yl)pyrrolidine-2-carboxamide]	1000 to 30000	100 to 999	–	–
CC(C)(C)OC(=O)N1CCC(Oc2cc(N3CCC[C@H]3C(=O)NCCc3ccc(C#N)cc3)nc(C(F)(F)F)n2)CC1 [Compound 45, (S)-tert-butyl 4-((6-(2-((4-cyanophenethyl)carbamoyl)pyrrolidin-1-yl)-2-(trifluoromethyl)pyrimidin-4-yl)oxy)piperidine-1-carboxylate]	100 to 999	< 100	–	–
CNCC1CCN(c2cc(N3CCC[C@H]3C(=O)NCCc3ccc(C#N)cc3)nc(C(F)(F)F)n2)CC1 [Compound 49]	100 to 999	100 to 999	–	–
N[C@@H](CO)C(=O)N1CCN(c2cc(N3CCC[C@@H](C(=O)NCCc4ccc(C(F)(F)F)cc4)C3)nc(C(F)(F)F)n2)CC1 [Compound 342, (R)-1-(6-(4-((S)-2-amino-3-hydroxypropanoyl)piperazin-1-yl)-2-(trifluoromethyl)pyrimidin-4-yl)-N-(4-(trifluoromethyl)phenethyl)piperidine-3-carboxamide]	100 to 999	–	< 100	100 to 999
CCOC(=O)CCNC(=O)NCCC1CCN(c2cc(N3CCC[C@@H](C(=O)NCCc4ccc(C#N)cc4)C3)nc(C(F)(F)F)n2)CC1 [Compound 346, (R)-ethyl 3-(3-(2-(1-(6-(3-((4-cyanophenethyl)carbamoyl)piperidin-1-yl)-2-(trifluoromethyl)pyrimidin-4-yl)piperidin-4-yl)ethyl)ureido)propanoate]	< 100	–	< 100	< 100
N#Cc1ccc(CCNC(=O)[C@@H]2CCCN2c2cc(N3CCC(CCNS(=O)(=O)CCNC(=O)NCCC(=O)O)CC3)nc(C(F)(F)F)n2)cc1 [Compound 371, (S)-3-(3-(3-((2-(1-(6-(2-((4-cyanophenethyl)carbamoyl)pyrrolidin-1-yl)-2-(trifluoromethyl)pyrimidin-4-yl)piperidin-4-yl)ethyl)amino)-2-sulfonyl)ethylureido)propanoic acid]	< 100	–	< 100	100 to 999
